Counter-ions that a name gives are not always drawn. Like-named read-outs stand apart in the source and are kept apart here.
What was measured:
[1] = molecular target: recombinant human KIT tyrosine kinase protein (Homo sapiens (Human), UniProt P10721); experiment: KIT tyrosine kinase assay (ADP-Glo); format: biochemical
Protocol: An in vitro assay utilizing the recombinant human KIT tyrosine kinase protein was developed to measure compound inhibition of KIT. KIT tyrosine kinase activity was measured by the ADP-Glo Kinase Assay system with poly […]) peptide substrate. Kinase Assay was performed in white 384-well plates and the luminescence was measured by Victor X5 Multilabel Counter (Perkin Elmer). Recombinant intracellular domain of human KIT protein was purchased from Carna Biosciences (Kobe, Japan). Poly […]) peptide was purchased from Sigma-Aldrich (St. Louis, Missouri, USA). ADP-Glo Kinase Assay reagent was purchased from Promega (Madison, Wisconsin, USA). Each test compound was dissolved in 100% DMSO to prepare 10 mM stock solutions. […] After the preincubation, 3 μL of substrate/ATP mixture was added and incubated for 1 hour at room temperature. The tyrosine phosphorylation by KIT kinase was quantified by ADP-Glo kinase assay kit following the manufacturer's protocol. Briefly, the phosphorylation reaction was terminated by adding 10 μL ADP-Glo reagent and incubated for 60 minutes at room temperature. 20 μL of Kinase Detection Reagent was added to each well and luminescence was measured by plate reader. […] Half maximal inhibitory concentration (IC50) was calculated by a Four […] Logistic Regression model using GraphPad Prism (GraphPad Software). The value without recombinant KIT protein and without test compound was used as a negative control (assay background).

[2] = system: M-07e cells; experiment: SCF-dependent M-07e cell proliferation assay; format: cell-based, human; conditions: SCF-dependent M-07e cell proliferation, 3 days, CellTiter Glo, read-out: M-07e IC50
Protocol: SCF-dependent cell proliferation assay was developed to measure the inhibitory potency of the compounds in M-07e cells, which express wild-type human KIT protein. The assay was performed in 96-well plates and the IC50 of each KIT inhibitor was determined by CellTiter Glo Assay reagent and Victor X5 Multilabel Counter (Perkin Elmer).
M-07e cells were purchased from AcceGen Biotechnology. Cells were maintained with M-07e Growth medium: RPMI-1640 containing 20% FBS, 100 U/mL penicillin and 100 microgram/mL streptomycin, 10 ng/mL rhGM-CSF, 10 ng/mL rhSCF. M-07e cells were seeded at a density of 5000 cells/90 μL/well in 96-well plates. Test compounds were dissolved in 100% DMSO to make 20 mM stock solution and serially diluted 1:3 with 100% DMSO to make an 11-point dilution series with concen-trations from […] to 0.024 μM. The serially diluted compounds were then each diluted 1:50 with culture medium to obtain assay compound solutions containing 2% DMSO. Ten μL of assay compound solutions were added to the 90 μL of culture cell suspension in the 96-well plate, with a final DMSO concentration of 0.2%. The plates were then incubated in a 5% CO2 incubator at 37° C. for 3 days. To obtain Day Zero Controls for background calculation, cells were seeded at 5000 cells/100 μL in a new 96-well plate and processed on the same day. Both Day Zero controls and 3 day culture plates were then treated as follows. 100 μL of CellTiter Glo Assay reagent was added to each well and the plate was incubated at room temperature for 15 min on a shaker at 200-300 RPM. Then 100 μL of cell lysate samples were transferred to white wall 96-well plates and luminescence was measured by a plate reader. The luminescence of Day Zero Control was subtracted from the luminescence intensity of 3 day culture readings. The assay control for this experiment was cells treated with 0.2% DMSO in culture medium and wells with 100 μL of culture medium (0.2% DMSO without cells) were used as the blank for data analysis.
The IC50 value of each compound was determined by using % inhibition by nor-malizing inhibition in DMSO treated control wells to 0% using the following formula method: […]
Plot percent inhibition in proliferation of triplicates against the respective concen-trations of compound and fit the dose response curve using the sigmoidal dose response equation to generate the IC50 in GraphPad Prism 8 software.

Sequence of recombinant human KIT tyrosine kinase protein (P10721 546-976): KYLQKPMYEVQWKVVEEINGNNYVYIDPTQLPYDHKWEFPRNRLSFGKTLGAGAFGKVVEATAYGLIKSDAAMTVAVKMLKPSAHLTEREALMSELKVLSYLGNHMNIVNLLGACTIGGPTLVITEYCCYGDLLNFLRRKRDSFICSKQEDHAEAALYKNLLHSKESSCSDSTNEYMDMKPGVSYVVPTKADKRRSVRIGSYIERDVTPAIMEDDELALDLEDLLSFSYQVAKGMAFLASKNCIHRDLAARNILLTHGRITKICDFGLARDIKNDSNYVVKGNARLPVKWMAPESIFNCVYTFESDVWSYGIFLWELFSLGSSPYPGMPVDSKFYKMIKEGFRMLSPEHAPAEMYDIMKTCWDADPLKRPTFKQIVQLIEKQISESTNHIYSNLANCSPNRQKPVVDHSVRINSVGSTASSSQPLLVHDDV

Row | SMILES | IC50 ([1]; Table 99) [nM] | IC50 ([2]; Homo sapiens, M-07e, 72 h) [nM] | IC50 ([1]; Table 98) [nM] | IC50 [2] [nM]
1 | [2H]C([2H])([2H])n1c(=O)[nH]c2cc(C(=O)NCc3ccc(N(C)[C@H]4C[C@@H](C(F)(F)F)C4)nc3)ccc21 (relative stereo) [Example 116, 1-(Trideuteromethyl)-N-((6-(methyl(cis-3-(trifluoromethyl)cyclobutyl)amino)pyridin-3-yl)methyl)-2-oxo-2,3-dihydro-1H-benzimidazole-5-carboxamide] | 29 | 28 | – | –
2 | CC(c1ccccc1)N(C)c1ccc(CNC(=O)c2ccc3c(c2)[nH]c(=O)n3C)cn1 (single isomer, unassigned) [82 Peak 1] | – | – | 180 | 6300
3 | CC(c1ccccc1)N(C)c1ccc(CNC(=O)c2ccc3c(c2)[nH]c(=O)n3C)cn1 (single isomer, unassigned) [82 Peak 2] | – | – | 29 | 620
4 | CN(c1ccc(CNC(=O)c2ccc3c(c2)[nH]c(=O)n3C)cn1)C1CC(OC(F)F)C1 (single isomer, unassigned) [106 Isomer I, N-((6-((3-(Difluoromethoxy)cyclobutyl)(methyl)amino)pyridin-3-yl)methyl)-1-methyl-2-oxo-2,3-dihydro-1H-benzimidazole-5-carboxamide] | 36 | – | – | 15
5 | CN(c1ccc(CNC(=O)c2ccc3c(c2)[nH]c(=O)n3C)cn1)C1CC(OC(F)F)C1 (single isomer, unassigned) [106 Isomer II, N-((6-((3-(Difluoromethoxy)cyclobutyl)(methyl)amino)pyridin-3-yl)methyl)-1-methyl-2-oxo-2,3-dihydro-1H-benzimidazole-5-carboxamide] | 22 | – | – | 89
6 | CN(c1ccc(CNC(=O)c2ccc3c(c2)[nH]c(=O)n3C)cn1)C1CC(OC(F)(F)F)C1 (single isomer, unassigned) [107 Isomer I, 1-Methyl-N-((6-(methyl(3-(trifluoromethoxy)cyclobutyl)amino)pyridin-3-yl)methyl)-2-oxo-2,3-dihydro-1H-benzimidazole-5-carboxamide] | 18 | – | – | 47
7 | CN(c1ccc(CNC(=O)c2ccc3c(c2)[nH]c(=O)n3C)cn1)C1CC(OC(F)(F)F)C1 (single isomer, unassigned) [107 Isomer II, 1-Methyl-N-((6-(methyl(3-(trifluoromethoxy)cyclobutyl)amino)pyridin-3-yl)methyl)-2-oxo-2,3-dihydro-1H-benzimidazole-5-carboxamide] | 28 | – | – | 286
8 | CC(NC(=O)c1ccc2c(c1)[nH]c(=O)n2C)c1ccc(N(C)C(C)C)nc1 (single isomer, unassigned) [130 Peak 1] | 79 | 621 | – | –
9 | CC(NC(=O)c1ccc2c(c1)[nH]c(=O)n2C)c1ccc(Oc2ccc(F)cc2)nc1 (single isomer, unassigned) [Compound 6 Peak 1, N-(1-(6-(4-Fluorophenoxy)pyridin-3-yl)ethyl)-1-methyl-2-oxo-2,3-dihydro-1H-benzimid azole-5-carboxamide] | – | 680 | – | –
10 | Cn1c(=O)[nH]c2cc(C(=O)NCc3ccc(Oc4ccccc4F)nc3)c(F)cc21 [Compound 3, 6-Fluoro-N-((6-(2-fluorophenoxy)pyridin-3-yl)methyl)-1-methyl-2-oxo-2,3-dihydro-1H-benzimidazole-5-carboxamide trifluoroacetate] | – | 180 | 26 | –
11 | Cn1c(=O)[nH]c2cc(C(=O)NCc3ccc(Oc4ccc(F)cc4F)nc3)ccc21 [Compound 4, N-((6-(2,4-Difluorophenoxy)pyridin-3-yl)methyl)-1-methyl-2-oxo-2,3-dihydro-1H-benzi midazole-5-carboxamide] | – | 380 | 21 | –
12 | CN(c1ccc(F)cc1)c1ccc(CNC(=O)c2ccc3c(c2)[nH]c(=O)n3C)cn1 [Compound 9, N-((6-((4-Fluorophenyl)(methyl)amino)pyridin-3-yl)methyl)-1-methyl-2-oxo-2,3-dihydro-1H-benzimidazole-5-carboxamide trifluoroacetate] | – | 610 | 34 | –
13 | CN(c1ccc(CNC(=O)c2ccc3c(c2)[nH]c(=O)n3C)cn1)C1CCC(F)(F)CC1 [Compound 10, N-((6-((4,4-Difluorocyclohexyl)(methyl)amino)pyridin-3-yl)methyl)-1-methyl-2-oxo-2,3-dihydro-1H-benzimidazole-5-carboxamide] | – | 240 | – | –
14 | CC(C)N(C)c1ccc(CNC(=O)c2ccc3c(c2)[nH]c(=O)n3C)cn1 [Compound 11b, N-((6-(Isopropyl(methyl)amino)pyridin-3-yl)methyl)-1-methyl-2-oxo-2,3-dihydro-1H-be nzimidazole-5-carboxamide hydrochloride] | – | 220 | 96 | –
15 | Cn1c(=O)[nH]c2cc(C(=O)NCc3ccc(N(C)[C@H]4C[C@@H](C(F)(F)F)C4)nc3)ccc21 [Compound 12, 1-Methyl-N-((6-(methyl(cis-3-(trifluoromethyl)cyclobutyl)amino)pyridin-3-yl)methyl)-2-oxo-2,3-dihydro-1H-benzimidazole-5-carboxamide] | – | 38 | 36 | –
16 | C[C@H]1CCCN1c1ccc(CNC(=O)c2ccc3c(c2)[nH]c(=O)n3C)cn1 [Compound 14, (S)-1-Methyl-N-((6-(2-methylpyrrolidin-1-yl)pyridin-3-yl)methyl)-2-oxo-2,3-dihydro-1H-benzimidazole-5-carboxamide] | – | 560 | 63 | –
17 | CC(c1ccc(F)cc1)c1ccc(CNC(=O)c2ccc3c(c2)[nH]c(=O)n3C)cn1 (stereo not drawn) [Compound 15, N-((6-(1-(4-Fluorophenyl)ethyl)pyridin-3-yl)methyl)-1-methyl-2-oxo-2,3-dihydro-1H-be nzimidazole-5-carboxamide] | – | 2200 | 67 | –
18 | CC(C)N1CCc2cc(CNC(=O)c3ccc4c(c3)[nH]c(=O)n4C)cnc21 [Compound 17, N-((1-Isopropyl-2,3-dihydro-1H-pyrrolo[2,3-b]pyridin-5-yl)methyl)-1-methyl-2-oxo-2,3-dihydro-1H-benzimidazole-5-carboxamide] | – | 390 | 22 | –
19 | Cn1c(=O)[nH]c2cc(C(=O)NCc3cnc4c(c3)CCN4C3CCC(F)(F)CC3)ccc21 [Compound 18, N-((1-(4,4-difluorocyclohexyl)-2,3-dihydro-1H-pyrrolo[2,3-b]pyridin-5-yl)methyl)-1-met hyl-2-oxo-2,3-dihydro-1H-benzimidazole-5-carboxamide] | – | 210 | 57 | –
20 | Cn1c(=O)[nH]c2cc(C(=O)NCc3cnc4c(c3)CCN4c3ccccc3F)ccc21 [Compound 19, N-((1-(2-Fluorophenyl)-2,3-dihydro-1H-pyrrolo[2,3-b]pyridin-5-yl)methyl)-1-methyl-2-o xo-2,3-dihydro-1H-benzimidazole-5-carboxamide] | – | 160 | 60 | –
21 | Cn1c(=O)[nH]c2cc(C(=O)NCc3cnc4c(ccn4-c4ccccc4)c3)ccc21 [Compound 20, 1-Methyl-2-oxo-N-((1-phenyl-1H-pyrrolo[2,3-b]pyridin-5-yl)methyl)-2,3-dihydro-1H-benzimidazole-5-carboxamide] | – | 400 | 38 | –
22 | CN(c1ccc(CNC(=O)c2ccc3[nH]c(=O)[nH]c3c2)cn1)C1CCC(F)(F)CC1 [Example 128] | – | 2830 | – | –
23 | CC(CO)N(C)c1ccc(CNC(=O)c2ccc3c(c2)[nH]c(=O)n3C)cn1 (stereo not drawn) [Example 133] | 75 | – | – | –

From patent US20260042747A1, “KIT INHIBITORS, COMPOUNDS, PHARMACEUTICAL COMPOSITIONS, AND METHODS OF USE THEREOF” (Alivexis, Inc., priority 2022, published 2026)
